In ChEMBL document CHEMBL1201862, “PubChem BioAssay data set” (2004):
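Briefly, cells in 96-well plates were exposed to five compound concentrations for 48 h, and endpoints were estimated by linear interpolation. At the GI50, growth is halved.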 The source made the active and inactive calls. No stated cut-off is given here; in the data, active = GI50 up to about 1.1 µM and inactive = higher.

Assays:
Experiment in all cases: NCI tumour cell line growth inhibition, 48 h
[1] = tested on: IGROV-1
[2] = tested on: A549
[3] = tested on: SK-MEL-5
[4] = tested on: HT-29
[5] = tested on: UO-31
[6] = tested on: MCF7
[7] = tested on: OVCAR-4
[8] = tested on: KM12
[9] = tested on: SW-620
[10] = tested on: Malme-3M
[11] = tested on: SR
[12] = tested on: HCT-116
[13] = tested on: CCRF-CEM
[14] = tested on: RPMI-8226
[15] = tested on: OVCAR-3
[16] = tested on: A498
[17] = tested on: UACC-62
[18] = tested on: NCI-H522
[19] = tested on: TK-10

Measured: GI50

CCN(CC)c1ccc2cc(-c3nnc(-c4ccccc4)[nH]3)c(=O)oc2c1
inactive: [1] 17.7 µM | [2] 68.5 µM | [3] > 100 µM | [4] 33 µM | [5] 4.39 µM | [6] > 100 µM | [7] 7.36 µM | [8] 40 µM | [9] 33.7 µM | [10] 83 µM | [11] 70.5 µM | [12] 35.8 µM | [13] 39.7 µM | [14] 54.2 µM | [15] 40.5 µM | [16] 22.9 µM | [17] > 100 µM | [18] 18.7 µM

COc1cc2c(cc1OC)[C@@H]([C@H](O)c1ccccc1)NCC2
inactive: [1] > 100 µM | [2] > 100 µM | [3] > 100 µM | [4] > 100 µM | [19] > 100 µM | [5] > 92.7 µM | [7] > 100 µM | [8] > 100 µM | [9] > 100 µM | [10] > 100 µM | [11] > 100 µM | [12] > 100 µM | [13] > 100 µM | [14] > 100 µM | [15] > 100 µM | [16] > 100 µM | [17] > 100 µM | [18] > 100 µM

CCOc1ccc(/C(Cl)=C(\C=O)c2ccc(OC)c(OC)c2)cc1OCC
inactive: [1] > 100 µM | [2] 46.9 µM | [3] 22.5 µM | [4] 41.1 µM | [19] 80.9 µM | [5] 53 µM | [7] 38.7 µM | [8] 91.4 µM | [9] 83.9 µM | [10] 37.5 µM | [11] 20.3 µM | [12] 33.8 µM | [13] 12.7 µM | [14] 28.1 µM | [15] > 100 µM | [17] 33 µM | [18] 18.2 µM

COc1cc(C2C(Cl)C(=O)N2NC(=O)Cc2ccccc2)ccc1O (stereo not drawn)
inactive: [1] > 100 µM | [2] > 100 µM | [3] 69.7 µM | [4] 73.3 µM | [19] > 100 µM | [5] 22.6 µM | [7] > 100 µM | [8] 91 µM | [9] 68.4 µM | [10] > 100 µM | [11] 18.3 µM | [12] 45.6 µM | [13] 23.9 µM | [14] 32.6 µM | [15] 33.3 µM | [17] 73.3 µM | [18] 21.3 µM

N#CC(c1ccccn1)c1nc2ccccc2[nH]1 (stereo not drawn)
inactive: [2] > 100 µM | [3] > 100 µM | [4] > 100 µM | [19] > 100 µM | [5] > 100 µM | [7] 81.1 µM | [9] > 100 µM | [10] > 100 µM | [11] 38.5 µM | [12] 98.4 µM | [13] > 100 µM | [14] 54 µM | [15] > 100 µM | [16] > 100 µM | [17] 70.3 µM | [18] > 100 µM

COc1ccc(C(C2=C(O)CC(C)OC2=O)C2=C(O)CC(C)OC2=O)cc1 (stereo not drawn)
inactive: [1] > 100 µM | [2] > 100 µM | [3] > 100 µM | [4] > 100 µM | [5] > 100 µM | [7] > 100 µM | [8] > 100 µM | [9] > 100 µM | [10] > 100 µM | [11] > 100 µM | [12] > 100 µM | [13] > 100 µM | [14] > 100 µM | [15] > 100 µM | [17] > 100 µM | [18] > 100 µM

OCC(O)C(OC1OC(CO)C(O)C(O)C1O)c1nn(-c2ccc(F)cc2)c2nc3cc(Cl)c(Cl)cc3cc12 (stereo not drawn)
inactive: [4] > 100 µM | [19] > 100 µM | [5] > 100 µM | [7] > 100 µM | [8] > 100 µM | [10] > 100 µM | [11] > 100 µM | [12] > 100 µM | [13] > 100 µM | [14] > 100 µM | [15] > 100 µM | [16] > 100 µM | [17] > 100 µM | [18] > 100 µM

ClCc1ccc(C2OCCO2)cc1
inactive: [1] > 72.4 µM | [2] > 51.4 µM | [3] 24.8 µM | [4] 15.9 µM | [19] > 49 µM | [5] > 40.7 µM | [8] 12.8 µM | [9] 16.8 µM | [10] 20.3 µM | [11] 11.1 µM | [12] > 35.6 µM | [13] > 37.7 µM | [14] 21.4 µM | [15] 22.3 µM | [16] 20.8 µM | [17] > 36.6 µM | [18] 14.8 µM
